Results as given in patent publication US12319640B2, “Cyclic diones as herbicidal compounds” (SYNGENTA CROP PROTECTION AG, priority 2019, dated 2025).

Key:
Assay in all cases: Glasshouse herbicide test, pre- and post-emergence
Type in all cases: in vivo
Lolium perenne (LOLPE) = details: 250 g/h, evaluated after 13 days, five-point scale; for percentage damage caused to the plant, LOLPE POST: post-emergence; for percentage damage caused to the plant, LOLPE PRE: pre-emergence
Procedure: (§1) Seeds of a variety of test species are sown in standard soil in pots (Lolium perenne (LOLPE), Setaria faberi (SETFA), Alopecurus myosuroides (ALOMY), Echinochloa crus-galli (ECHCG), Avena fatua (AVEFA)). After cultivation for one day (pre-emergence) or after 8 days cultivation (post-emergence) under controlled conditions in a glasshouse (at 24/16° C., day/night; 14 hours light; 65% humidity), the plants are sprayed with an aqueous spray solution derived from the formulation of the technical active ingredient in acetone/water (50:50) solution containing 0.5% Tween 20 (polyoxyethelyene sorbitan monolaurate, CAS RN 9005-64-5). Compounds are applied at 250 g/h. The test plants are then grown in a glasshouse under controlled conditions in a glasshouse (at 24/16° C., day/night; 14 hours light; 65% humidity) and watered twice daily. After 13 days for pre and post-emergence, the test is evaluated for the percentage damage caused to the plant. The biological activities are shown in the following table on a five-point scale (5=80-100%; 4=60-79%; 3=40-59%; 2=20-39%; 1=0-19%).

Setaria faberi (SETFA) = details: 250 g/h, evaluated after 13 days, five-point scale; for percentage damage caused to the plant, SETFA POST: post-emergence; for percentage damage caused to the plant, SETFA PRE: pre-emergence
Procedure: as §1

[1] = system: Alopecurus myosuroides (ALOMY); details: 250 g/h, evaluated after 13 days, five-point scale; for percentage damage caused to the plant, ALOMY POST: post-emergence; for percentage damage caused to the plant, ALOMY PRE: pre-emergence
Procedure: as §1

[2] = system: Echinochloa crus-galli (ECHCG); details: 250 g/h, evaluated after 13 days, five-point scale; for percentage damage caused to the plant, ECHCG POST: post-emergence; for percentage damage caused to the plant, ECHCG PRE: pre-emergence
Procedure: as §1

Avena fatua (AVEFA) = details: 250 g/h, evaluated after 13 days, five-point scale; for percentage damage caused to the plant, AVEFA POST: post-emergence; for percentage damage caused to the plant, AVEFA PRE: pre-emergence
Procedure: as §1

SMILES | percentage damage caused to the plant, LOLPE POST (Lolium perenne (LOLPE)) | percentage damage caused to the plant, LOLPE PRE (Lolium perenne (LOLPE)) | percentage damage caused to the plant, SETFA POST (Setaria faberi (SETFA)) | percentage damage caused to the plant, SETFA PRE (Setaria faberi (SETFA)) | percentage damage caused to the plant, ALOMY POST [1] | percentage damage caused to the plant, ALOMY PRE [1] | percentage damage caused to the plant, ECHCG POST [2] | percentage damage caused to the plant, ECHCG PRE [2] | percentage damage caused to the plant, AVEFA POST (Avena fatua (AVEFA)) | percentage damage caused to the plant, AVEFA PRE (Avena fatua (AVEFA))
CC#Cc1cc(C)c(C2C(=O)CC3(CCC(NC(=O)NC(=O)c4ccccn4)CC3)CC2=O)c(C)c1 (stereo not drawn) [Compound 2.023] | 5 (5=80-100%) | 5 (5=80-100%) | 5 (5=80-100%) | 5 (5=80-100%) | 5 (5=80-100%) | 5 (5=80-100%) | 5 (5=80-100%) | 5 (5=80-100%) | 5 (5=80-100%) | 4 (4=60-79%)
CC#Cc1cc(C)c(C2C(=O)CC3(CCC(NC(=O)C4COCCO4)CC3)CC2=O)c(C)c1 (stereo not drawn) [Compound 2.009] | 5 (5=80-100%) | 5 (5=80-100%) | 5 (5=80-100%) | 5 (5=80-100%) | 4 (4=60-79%) | 4 (4=60-79%) | 5 (5=80-100%) | 5 (5=80-100%) | 5 (5=80-100%) | 4 (4=60-79%)
CC#Cc1cc(C)c(C2C(=O)CC3(CCC(C(=O)NC(C)(C)C)CC3)CC2=O)c(C)c1 (stereo not drawn) [Compound 1.013] | 5 (5=80-100%) | 5 (5=80-100%) | 5 (5=80-100%) | 5 (5=80-100%) | 5 (5=80-100%) | 3 (3=40-59%) | 5 (5=80-100%) | 5 (5=80-100%) | 4 (4=60-79%) | 1 (1=0-19%)
CC#Cc1cc(C)c(C2C(=O)CC3(CCC(NC(=O)Nc4ccccn4)CC3)CC2=O)c(C)c1 (stereo not drawn) [Compound 2.012] | 5 (5=80-100%) | 5 (5=80-100%) | 4 (4=60-79%) | 4 (4=60-79%) | 4 (4=60-79%) | 4 (4=60-79%) | 4 (4=60-79%) | 4 (4=60-79%) | 5 (5=80-100%) | 3 (3=40-59%)
CC#Cc1cc(C)c(C2C(=O)CC3(CCC(NC(=O)CC#N)CC3)CC2=O)c(C)c1 (stereo not drawn) [Compound 2.010] | 5 (5=80-100%) | 5 (5=80-100%) | 5 (5=80-100%) | 5 (5=80-100%) | 5 (5=80-100%) | 5 (5=80-100%) | 5 (5=80-100%) | 5 (5=80-100%) | 5 (5=80-100%) | 5 (5=80-100%)
CC#Cc1cc(C)c(C2C(=O)CC3(CCC(NC(=O)c4ccnc(F)c4)CC3)CC2=O)c(C)c1 (stereo not drawn) [Compound 2.018] | 5 (5=80-100%) | 5 (5=80-100%) | 5 (5=80-100%) | 5 (5=80-100%) | 5 (5=80-100%) | 4 (4=60-79%) | 5 (5=80-100%) | 5 (5=80-100%) | 5 (5=80-100%) | 5 (5=80-100%)
